Results reported in patent US5948884A, “Cyclosporin derivatives with anti-HIV effect” (priority 1995, dated 1999).
In brackets after ≈: the same amount, converted by molar mass.

Legend:
[1] = system: HIV-1 (strain IIIB); settings: MT4 cells infected with HIV-1 IIIB; p24 ELISA on third and fourth days after infection
Method: Test for Antiviral Activity
HIV-1 (strain IIIB) was adsorbed on the cells for 2 hours at 37°. The inoculum was then removed and the infected cells were transferred to tissue culture plates which contained the test compound at different concentrations. In this context, the virus inoculum was chosen such that the concentration of viral p24 antigen increased exponentially in the cell supernatant up to the fourth day after the infection. On the third and fourth days after the infection, the cell supernatants were analyzed by ELISA for p24 antigen. IC50 values were determined by comparing the p24 concentrations in the supernatant from the infected, substance-treated cells and in the supernatant from the untreated infected control cells.

[2] = system: HIV; settings: relative to the most strongly active substances of EP 484 281; cited from earlier work

Row | Compound | IC50 (p24 antigen in cell supernatant) [1] | activity against HIV, times weaker than MeIle-4-cyclosporin or MeVal-4-cyclosporin [2]
1 | C/C=C/C[C@@H](C)[C@@H](O)[C@H]1C(=O)N[C@@H](CC)C(=O)N(C)[C@H](CO)C(=O)N(C)[C@@H](CC(C)(C)O)C(=O)N[C@@H](C(C)C)C(=O)N(C)[C@@H](CC(C)C)C(=O)N[C@@H](C)C(=O)N[C@H](C)C(=O)N(C)[C@@H](CC(C)C)C(=O)N(C)[C@@H](CC(C)C)C(=O)N(C)[C@@H](C(C)C)C(=O)N1C [3-N-methyl-(D)-serine-4-(gamma-hydroxy)-N-methylleucinecyclosporin] | 0.1 mg/L (≈ 0.0801 µM) | –
2 | (gamma-hydroxy-N-methylleucine)cyclosporin | – | 5-6 times
